Test [1] concerns the target GST-fused human Keap1 (amino acid residues: 325-642) protein (Homo sapiens (Human), UniProt Q14145). Kind of test: FP assay (in vitro): inhibition of binding between Nrf2 and Keap1 by fluorescence polarization. To be noted: 20 nM GST-fused human Keap1, 10 nM FITC-labeled Nrf2 peptide, 2 hr at room temperature.
Test [2] relates to NQO1 activity in Hepa1c1c7 cells. Kind of test: NAD(P)H: quinone oxidoreductase-1 (NQO1) enzyme induction assay (in vitro). To be noted: Mus musculus, Hepa-1c1c7, NQO1 activity upon addition of 400 nM of test compound, about 48 hr, ratio from the base without the compound. The format is cell-based, mouse. In outline: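 Mouse Hepa1c1c7 hepatoma cells were treated with 400 nM compound for about 48 h, then lysed with digitonin/EDTA. NQO1 activity was measured as menadione-mediated MTT reduction with a G6P/G6PDH NADPH-regenerating system, stopped with dicoumarol, and read at A610. Values are the activity ratio versus untreated base wells.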

For test [3], the system named is NQO1 activity in rat kidney. Nature of the test: NQO1 activity assay in rat kidney (single administration). To be noted: SD rats (male), oral 3 mg/kg single administration; for NQO1 activity 24 hr later: 24 hr after administration; for NQO1 activity 48 hr later: 48 hr after administration. The format is in vivo. As to the method:
Experimental Example 3: NQO1 Activity Assay in Rat Kidney (Single Administration)
The test compound solution for administration was prepared by dissolving or suspending the test compound in 0.5 w/v % methylcellulose solution.
The test compound was administered orally (3 mg/kg, 2 mL/kg) to SD rats (male, Japan SLC). The solvent group was used as a control group. The test compound group was anesthetized with isoflurane 24 and 48 hr after administration, and the control group was anesthetized with isoflurane 24 hr after administration, and the rats were euthanized by abdominal aortotomy with blood release. The right kidney was immediately removed, and the renal cortex and medullary portion of the kidney were cut out for measurement of NQO1 activity.
Homogenization buffer (10 mM Tris-HCl, 250 mM sucrose, pH 7.4) and assay buffer (25 mM Tris-HCl, 0.7 mg/mL BSA, pH 7.4) were prepared.
1 mL of homogenization buffer was added to the collected kidney samples, and the organs were homogenized uniformly in ice using a Polytron homogenizer (PHYSCOTRON, Microtec Co. Ltd.) or TissueLyser II (QIAGEN). Homogenized samples were centrifuged (MX-305, TOMY) at 9000×g for 20 minutes at 4° C. The supernatant was then scalped with homogenization buffer to approximately 2 ml and ultracentrifuged (centrifuge; OptimaL-100XP, rotor; 50.4 Ti, Beckman Coulter) at 100,000×g for 60 min at 4° C. The protein concentration of the supernatant was measured with the Protein Assay BCA kit (#06385-00, Nacalai Tesque), and samples were diluted to 5 μg protein/30 μL with homogenization buffer. 2,6-Dichlorophenolindophenol (DCPIP) reaction buffer (assay buffer with 200 μM NADPH and 160 μM DCPIP, containing 1/1000 volume of DMSO or 20 μM dicoumarol DMSO solution) was prepared immediately before the measurement.
The 230 μL of each concentration of calibration solution was added to a 96-well plate (CORNING, 9017). To 30 μL of the sample solution was added 200 μL of DMSO-containing DCPIP reaction buffer or dicoumarol-containing DCPIP reaction buffer. The absorbance at 600 nm was immediately measured on a SpectraMax PLUS384 (Molecular devices) at 1 minute intervals for 10 minutes. […] A regression line was used to create the calibration curve.
The difference between the DCPIP decrease in the wells with DMSO-containing DCPIP reaction buffer and the DCPIP decrease in the wells with dicoumarol-containing DCPIP reaction buffer was divided by the amount of protein (mg) and time (min) to obtain NQO1 activity (nmol/mg/min). In Table 4 below, the NQO1 activity of the test compound-administered groups is expressed as a percentage of the control group.

GST-fused human Keap1 (amino acid residues: 325-642) protein, sequence (Q14145 325-624 limits assumed): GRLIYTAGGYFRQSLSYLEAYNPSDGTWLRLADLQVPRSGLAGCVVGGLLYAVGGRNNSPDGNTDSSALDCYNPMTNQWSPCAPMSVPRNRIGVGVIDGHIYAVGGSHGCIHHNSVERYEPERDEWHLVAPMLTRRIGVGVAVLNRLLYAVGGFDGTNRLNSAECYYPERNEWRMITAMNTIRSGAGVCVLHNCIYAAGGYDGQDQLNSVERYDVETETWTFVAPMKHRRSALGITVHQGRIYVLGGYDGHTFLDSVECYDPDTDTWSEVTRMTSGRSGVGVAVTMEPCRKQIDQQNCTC

In general, IC50 refers to the concentration at which inhibition is half-maximal. Lower therefore signals inhibition by little substance. Usually fold induction stands for the ratio of treated to control signal. `Cc1c([C@H](CC(=O)O)c2cc(CN3Cc4nc(O)ccc4O[C@H](C4CC4)C3)c3sccc3c2)ccc2c1nnn2C` [Example 5, (3R)-3-(7-{[(2R)-2-Cyclopropyl-7-hydroxy-2,3-dihydropyrido[2,3-f][1,4]oxazepin-4(5H)-yl]methyl}-1-benzothiophen-5-yl)-3-(1,4-dimethyl-1H-benzotriazol-5-yl)propanoic acid]: the IC50 in test [1] was in the range of 10 to 30 nM. Moreover, the fold induction at 0.4 µM in test [2] is more than 5. Also, in test [3], the “NQO1 activity 24 hr later” value is 9.4 percentage of the control group and the “NQO1 activity 48 hr later” value is listed as 10.9 percentage of the control group.
The like results for `CC[C@@H]1CN(Cc2cc([C@@H](c3ccc4c(nnn4C)c3C)C(C)(C)C(=O)O)cc3ccsc23)Cc2nc(O)ccc2O1` [Example 11, (3S)-3-(1,4-Dimethyl-1H-benzotriazol-5-yl)-3-(7-{[(2R)-2-ethyl-7-hydroxy-2,3-dihydropyrido[2,3-f][1,4]oxazepin-4(5H)-yl]methyl}-1-benzothiophen-5-yl)-2,2-dimethylpropanoic acid] were, in that order, not above 10 nM, more than 5, 9.3 percentage of the control group and 11.0 percentage of the control group.
As for `Cc1c([C@H](c2cc(CN3Cc4nc(O)ccc4OC4(CC4)C3)c3sccc3c2)C(C)(C)C(=O)O)ccc2c1nnn2C` [Example 13, (3S)-3-(1,4-Dimethyl-1H-benzotriazol-5-yl)-3-{7-[(7′-hydroxy-3′H-spiro[cyclopropane-1,2′-pyrido[2,3-f][1,4]oxazepin]-4′(5′H)-yl)methyl]-1-benzothiophen-5-yl}-2,2-dimethylpropanoic acid], the IC50 in test [1] lay in the range of 10 to 30 nM. In addition, the fold induction at 0.4 µM in test [2] is more than 5. In test [3], the “NQO1 activity 24 hr later” value is 6.5 percentage of the control group and the “NQO1 activity 48 hr later” value was 11.7 percentage of the control group.
Regarding `CC[C@H]1Cc2ccc(O)nc2CN(Cc2cc([C@H](CC(=O)O)c3cc(C)c4c(nnn4C)c3C)cc3ccsc23)C1` [Example 86, (3S)-3-(7-{[(6S)-6-Ethyl-2-hydroxy-5,6,7,9-tetrahydro-8H-pyrido[2,3-c]azepin-8-yl]methyl}-1-benzothiophen-5-yl)-3-(1,4,7-trimethyl-1H-benzotriazol-5-yl)propanoic acid], in test [1], the IC50 was not above 10 nM. In test [2], the fold induction at 0.4 µM was more than 5.
In the same order, the values of `CC[C@H]1Cc2ccc(O)nc2CN(Cc2cc([C@@H](CC(=O)O)c3cc(C)c4c(nnn4C)c3C)cc3ccsc23)C1` [Example 87, (3R)-3-(7-{[(6S)-6-Ethyl-2-hydroxy-5,6,7,9-tetrahydro-8H-pyrido[2,3-c]azepin-8-yl]methyl}-1-benzothiophen-5-yl)-3-(1,4,7-trimethyl-1H-benzotriazol-5-yl)propanoic acid] are not above 10 nM and more than 5.
In the same order, the values of `CC[C@@H]1CN(Cc2cc(C(CC(=O)O)c3ccc4c(nnn4CC)c3C)cc3ccsc23)Cc2nc(C)ccc2O1` (stereo partly drawn) [Example 92, 3-(1-Ethyl-4-methyl-1H-benzotriazol-5-yl)-3-(7-{[(2R)-2-ethyl-7-methyl-2,3-dihydropyrido[2,3-f][1,4]oxazepin-4(5H)-yl]methyl}-1-benzothiophen-5-yl)propanoic acid] are 30 to 300 nM and more than 5.
In the same order, the values of `CC[C@@H]1CN(Cc2cc(C(CC(=O)O)c3ccc4c(nnn4C)c3C)cc3ccsc23)Cc2nc(C(F)(F)F)ccc2O1` (stereo partly drawn) [Example 93, 3-(1,4-Dimethyl-1H-benzotriazol-5-yl)-3-(7-{[(2R)-2-ethyl-7-(trifluoromethyl)-2,3-dihydropyrido[2,3-f][1,4]oxazepin-4(5H)-yl]methyl}-1-benzothiophen-5-yl)propanoic acid] are not above 10 nM and more than 5.

The record behind these values is patent US20250296939A1, “BENZOTHIOPHENE COMPOUND” (Kyoto Pharmaceutical Industries, Ltd., priority 2022, published 2025).
